Key:
SKOV3 = assay: CCK-8 cell growth inhibition, SKOV3; type: cell-based, human; details: CCK-8 assay, 72-h incubation; read-out: Cell Lines IC50 SKOV3
Method: (§1) In vitro anticancer screening of all newly synthesized compounds towards human solid tumor cells, cervical (SiHa) and ovarian (SKOV3) cancer cell lines, was carried out by standard CCK-8 assay with cisplatin as the positive control, as cisplatin is one of the most used chemotherapy drugs. […] The compound was further evaluated in a dose response study against a panel of solid tumor cells, including cervical cancer cell lines (SiHa and HeLa), ovarian cancer cell lines (SKOV3 and OVCAR-5), breast cancer cell lines (4T1 and MCF-7), lung cancer cell lines (A549 and H460) to test cytotoxic activity. The IC50 values were summarized in Table 2, including the cytotoxic activity of the cisplatin used as reference compound.
(§2) The viability of cells as determined using the CCK8 assay method. Cells were seeded (2000–3000 cells per well) in 96-well plates. After incubation for 24 h in serum-containing media, the cells were treated with drugs at different concentrations diluted with culture medium for 72 h at 37 °C with a 5% CO2 atmosphere. Then, 10 μL CCK8 regent (Promega, WI) was added to each well, and the plates were incubated for 1–4 h at 37 °C. Finally, absorbance values of test wells (AS), control wells (AC) and blank wells (Ab) at 450 nm were read using the Microplate Reader (Promega, WI). Inhibition ratios were calculated as follows: [(AC − AS)/ (AC−Ab)] × 100%. IC50 values were calculated using GraphPad software.

SiHa = assay: CCK-8 cell growth inhibition, SiHa; type: cell-based, human; details: CCK-8 assay, 72-h incubation; read-out: Cell Lines IC50 SiHa
Method: as §1, §2

MCF-7 = assay: CCK-8 cell growth inhibition, MCF-7; type: cell-based, human; details: breast cancer; CCK-8 assay, 72-h incubation
Method: as §1
as §2, with “Then, 10 μL CCK8 regent (Promega, WI) was added to each well, and the plates were incubated for 1–4 h at 37 °C.” left out

H460 = assay: CCK-8 cell growth inhibition, H460; type: cell-based, human; details: lung cancer; CCK-8 assay, 72-h incubation
Method: as §1
as §2, with “Then, 10 μL CCK8 regent (Promega, WI) was added to each well, and the plates were incubated for 1–4 h at 37 °C.” left out

HeLa = assay: CCK-8 cell growth inhibition, HeLa; type: cell-based, human; details: cervical cancer; CCK-8 assay, 72-h incubation
Method: as §1
as §2, with “Then, 10 μL CCK8 regent (Promega, WI) was added to each well, and the plates were incubated for 1–4 h at 37 °C.” left out

OVCAR-5 = assay: CCK-8 cell growth inhibition, OVCAR-5; type: cell-based, human; details: ovarian cancer; CCK-8 assay, 72-h incubation
Method: as §1
as §2, with “Then, 10 μL CCK8 regent (Promega, WI) was added to each well, and the plates were incubated for 1–4 h at 37 °C.” left out

A549 = assay: CCK-8 cell growth inhibition, A549; type: cell-based, human; details: lung cancer; CCK-8 assay, 72-h incubation
Method: as §1
as §2, with “Then, 10 μL CCK8 regent (Promega, WI) was added to each well, and the plates were incubated for 1–4 h at 37 °C.” left out

4T1 = assay: CCK-8 cell growth inhibition, 4T1; type: cell-based; details: breast cancer; CCK-8 assay, 72-h incubation
Method: as §1
as §2, with “Then, 10 μL CCK8 regent (Promega, WI) was added to each well, and the plates were incubated for 1–4 h at 37 °C.” left out

SiHa xenograft = SiHa xenograft mouse model, oral dosing; type: in vivo; details: SiHa xenograft mice, 20 mg/kg oral, every day
Method: Based on a desirable set of in vitro properties, 12O was finally selected for further in vivo evaluation. We proceeded to test the antitumor efficacy of 12O in SiHa xenograft mice. Animals were orally given three doses (5, 10, and 20 mg Kg^−1) of 12O, one dose (20 mg Kg^−1) of cisplatin (positive control), or vehicle (control) every day. […] Of note, In Figure 5c, an obvious decrease in tumor size was also observed at the end of observation. The average tumor weight (Figure 5d) of the 12O-treated group was less than that of cisplatin. HE staining was further performed to identify the efficacy of 12O (Figure 5e). […] Additional kinase activities of 12O intimately associated with the growth, survival, and metastasis in tumor cells, may contribute to the antitumor activity, but may also cause side effects. Multi-target kinase inhibitor extensively used in clinic cancer therapy, while hampered by associated adverse reactions and side-effect. Thus, further evidence is needed. An in-depth study of compound 12O is ongoing in our laboratory and will be reported in due course.
All animal studies were conducted under the approval of the Experimental Animal Management Committee of Nankai University (No. NKUEC20190228). Six- to eight-week-old female BALB/c nude mice were purchased from Beijing HFK Bioscience Company. Mice were fed in an SPF-level laboratory animal room. The mice were kept in independent ventilation cages with autoclaved corncobs at the bottom of the cage as bedding. The dimensions of the cages were 390 × 180 × 180 mm. Environmental factors: Average air temperature ranged from 20 to 26 °C with average relative air humidity ranging from 40 to 70%. Noise was below 60 decibels. Ventilation times were more than 15 times/hour. Air velocity was 0.1~0.2m/s. The ammonia concentration was below 14/(mg/m³). Working illumination was 150~300LX and animal illumination was 15~20LX. The nutritional components of mouse food include: water content: ≤10%, crude protein: ≥18%, crude fat: ≥4%, crude fiber: ≥5%, minerals: ≥4%, calcium: 1.0–1.8%, Phosphorus: 0.6-1.2%. The water that mice drink is sterilized by the animal drinking system.
Cells SiHa were harvested during the exponential-growth phase, washed 3 times with serum-free medium, followed by resuspension at a concentration of 2 × 10^6 per mL. A total of 100 μL of cell suspension was injected into SCID mice subcutaneously. After the tumors had grown to 100−150 mm^3, all the mice were randomized into 5 groups (5 mice for each group, 25 mice total). The mice were treated daily via oral gavage administration with 12O (5, 10, or 20 mg kg^−1 d^−1), cisplatin (20 mg kg^−1 d^−1), or vehicle. […] Mice were monitored for side effects every day. Body weights and tumor sizes were determined every other day and volume was also observed. At the end-point of the study, all mice had survived. Mice were euthanized and the subcutaneous tumor tissues were stripped and collected. Tumor measurements were calculated using a digital vernier caliper, and the volumes were determined using the following calculation: (short^2) × long × 0.5. Inhibition rate of tumor growth was calculated using the following formula: 100 × {1 − [(tumor volume final-tumor volume initial) for 12O-treated group]/ [(tumor volume final-tumor volume initial) for the vehicle-treated group]} [23].

Compound	IC50 (SKOV3) [nM]	IC50 (SiHa) [nM]	other results
N.N.[Cl][Pt][Cl] [Cisplatin, cisplatin, reference compound]	5360	4910	IC50 (MCF-7): 7160 nM; IC50 (H460): > 10000 nM; IC50 (HeLa): 5810 nM; IC50 (OVCAR-5): 1240 nM; IC50 (A549): 8280 nM; IC50 (4T1): 4260 nM; Tumor growth inhibition (TGI) (SiHa xenograft): 31.14%
N-(3-bromophenyl)-N-(4-((5-fluoro-4-(1-isopropyl-1H-benzo[d](1,2,3)triazol-6-yl)pyrimidin-2-yl)amino)benzyl)cyclopropane-1,1-dicarboxamide [12E]	778	66	
N-(3-chlorophenyl)-N-(4-((5-fluoro-4-(1-isopropyl-1H-benzo[d](1,2,3)triazol-6-yl)pyrimidin-2-yl)amino)benzyl)cyclopropane-1,1-dicarboxamide [12C]	459	68	
N-(3-cyanophenyl)-N-(4-((5-fluoro-4-(1-isopropyl-1H-benzo[d](1,2,3)triazol-6-yl)pyrimidin-2-yl)amino)benzyl)cyclopropane-1,1-dicarboxamide [12K]	108	83	
N-(4-((5-fluoro-4-(1-isopropyl-1H-benzo[d](1,2,3)triazol-6-yl)pyrimidin-2-yl)amino)benzyl)-N-(3-(trifluoromethyl)phenyl)cyclopropane-1,1-dicarboxamide [12M]	498	177	
N-(4-((5-fluoro-4-(1-isopropyl-1H-benzo[d](1,2,3)triazol-6-yl)pyrimidin-2-yl)amino)benzyl)-N-(3-fluorophenyl)cyclopropane-1,1-dicarboxamide [12A]	531	35	
N-(4-((5-fluoro-4-(1-isopropyl-1H-benzo[d](1,2,3)triazol-6-yl)pyrimidin-2-yl)amino)benzyl)-N-(3-methoxyphenyl)cyclopropane-1,1-dicarboxamide [12G]	325	73	
N-(4-((5-fluoro-4-(1-isopropyl-1H-benzo[d](1,2,3)triazol-6-yl)pyrimidin-2-yl)amino)benzyl)-N-(4-(trifluoromethyl)phenyl)cyclopropane-1,1-dicarboxamide [12N]	427	160	
N-(4-((5-fluoro-4-(1-isopropyl-1H-benzo[d](1,2,3)triazol-6-yl)pyrimidin-2-yl)amino)benzyl)-N-(4-fluorophenyl)cyclopropane-1,1-dicarboxamide [12B]	199	28	
N-(4-((5-fluoro-4-(1-isopropyl-1H-benzo[d](1,2,3)triazol-6-yl)pyrimidin-2-yl)amino)benzyl)-N-(4-methoxyphenyl)cyclopropane-1,1-dicarboxamide [12H]	312	80	
N-(4-((5-fluoro-4-(1-isopropyl-1H-benzo[d](1,2,3)triazol-6-yl)pyrimidin-2-yl)amino)benzyl)-N-(m-tolyl)cyclopropane-1,1-dicarboxamide [12I]	165	42	
N-(4-((5-fluoro-4-(1-isopropyl-1H-benzo[d](1,2,3)triazol-6-yl)pyrimidin-2-yl)amino)benzyl)-N-(p-tolyl)cyclopropane-1,1-dicarboxamide [12J]	137	74	
N-(4-bromophenyl)-N-(4-((5-fluoro-4-(1-isopropyl-1H-benzo[d](1,2,3)triazol-6-yl)pyrimidin-2-yl)amino)benzyl)cyclopropane-1,1-dicarboxamide [12F]	706	128	
N-(4-chloro-3-(trifluoromethyl)phenyl)-N-(4-((5-fluoro-4-(1-isopropyl-1H-benzo[d](1,2,3)triazol-6-yl)pyrimidin-2-yl)amino)benzyl)cyclopropane-1,1-dicarboxamide [12P]	915	231	
N-(4-chlorophenyl)-N-(4-((5-fluoro-4-(1-isopropyl-1H-benzo[d](1,2,3)triazol-6-yl)pyrimidin-2-yl)amino)benzyl)cyclopropane-1,1-dicarboxamide [12D]	793	63	
N-(4-cyanophenyl)-N-(4-((5-fluoro-4-(1-isopropyl-1H-benzo[d](1,2,3)triazol-6-yl)pyrimidin-2-yl)amino)benzyl)cyclopropane-1,1-dicarboxamide [12L]	101	63	

Reference: article PMC7664879, “Discovery of 12O—A Novel Oral Multi-Kinase Inhibitor for the Treatment of Solid Tumor” (Molecules, 2020)
